Measurements published in ChEMBL document CHEMBL5126503, “Renieramycin-type alkaloids from marine-derived organisms: Synthetic chemistry, biological activity and structural modification” (Eur J Med Chem, 2021).
Converted amounts (≈) assume the structure as drawn.

How the values were obtained:
[1] = test system: QG-56; experiment: Cytotoxicity against human QG-56 cells assessed as cell growth inhibition incubated for 4 days by Cell counting kit-8 assay; format: functional, cell-based; conditions: QG-56, 96 h
[2] = test system: DU-145; experiment: Cytotoxicity against human DU-145 cells assessed as cell growth inhibition incubated for 4 days by Cell counting kit-8 assay; format: functional, cell-based; conditions: DU-145, 96 h
[3] = test system: HT-29; experiment: Cytotoxicity against human HT-29 cells assessed as cell growth inhibition; format: functional, cell-based
[4] = test system: P388; experiment: Cytotoxicity against mouse P388 cells assessed as cell growth inhibition; format: functional, cell-based
[5] = Cytotoxicity against mouse NIH3T3 cells assessed as cell growth inhibition at 50 ng/ml; format: toxicity, cell-based
[6] = test system: Melanoma cell line; experiment: Cytotoxicity against human Melanoma cell line assessed as cell growth inhibition; format: functional, cell-based
[7] = test system: HCT-116; experiment: Cytotoxicity against human HCT-116 cells assessed as cell growth inhibition incubated for 4 days by Cell counting kit-8 assay; format: functional, cell-based; conditions: HCT-116, 96 h
[8] = test system: A549; experiment: Cytotoxicity against human A549 cells assessed as cell growth inhibition; format: functional, cell-based
[9] = test system: HL-60; experiment: Cytotoxicity against human HL-60 cells assessed as cell growth inhibition; format: functional, cell-based
[10] = test system: HCT-116; experiment: Cytotoxicity against human HCT-116 cells assessed as cell growth inhibition; format: functional, cell-based
[11] = test system: QG-56; experiment: Cytotoxicity against human QG-56 cells assessed as cell growth inhibition; format: functional, cell-based
[12] = test system: DLD-1; experiment: Cytotoxicity against human DLD-1 cells assessed as cell growth inhibition; format: functional, cell-based
[13] = test system: NCI-H460; experiment: Cytotoxicity against human NCI-H460 cells assessed as cell growth inhibition; format: functional, cell-based
[14] = test system: A549; experiment: Antiproliferative activity against human A549 cells assessed as cell growth inhibition by MTT assay; format: functional, cell-based
[15] = test system: HeLa; experiment: Antiproliferative activity against human HeLa cells assessed as cell growth inhibition by MTT assay; format: functional, cell-based
[16] = test system: HCT-116; experiment: Growth inhibition of human HCT-116 cells; format: functional
[17] = test system: QG-56; experiment: Growth inhibition of human QG-56 cells; format: functional
[18] = test system: HCT-8; experiment: Antiproliferative activity against human HCT-8 cells assessed as cell growth inhibition by MTT assay; format: functional, cell-based
[19] = test system: DU-145; experiment: Growth inhibition of human DU-145 cells; format: functional
[20] = test system: BGC-823; experiment: Antiproliferative activity against human BGC-823 cells assessed as cell growth inhibition by MTT assay; format: functional, cell-based
[21] = test system: KB; experiment: Antiproliferative activity against human KB cells assessed as cell growth inhibition by MTT assay; format: functional, cell-based
[22] = test system: Leishmania amazonensis; experiment: Antileishmanial activity against Leishmania amazonensis promastigotes assessed as reduction on parasite growth by green fluorescent protein based microplate reader assay; format: functional, organism-based
[23] = test system: ASPC1; experiment: Cytotoxicity against human ASPC1 cells assessed as cell growth inhibition; format: functional, cell-based
[24] = Cytotoxicity against human U373 MG cells assessed as cell growth inhibition incubated for 4 to 72 hrs by MTT assay; format: functional, cell-based, U-373MG ATCC
[25] = test system: T47D; experiment: Cytotoxicity against human T47D cells assessed as cell growth inhibition; format: functional, cell-based
[26] = test system: HCT-116; experiment: Antiproliferative activity against human HCT-116 cells assessed as cell growth inhibition by MTT colorimetric assay; format: functional, cell-based
[27] = test system: MCF7; experiment: Cytotoxicity against human MCF7 cells assessed as cell growth inhibition incubated for 72 hrs by MTT assay; format: functional, cell-based; conditions: MCF7, 72 h
[28] = test system: MDA-MB-435; experiment: Antiproliferative activity against human MDA-MB-435 cells assessed as cell growth inhibition by MTT colorimetric assay; format: functional, cell-based
[29] = Cytotoxicity against human HEK293 cells assessed as cell growth inhibition; format: toxicity, cell-based
[30] = test system: Bacillus subtilis; experiment: Antimicrobial activity against Bacillus subtilis assessed as reduction in microbial growth by disk diffusion assay; format: functional
[31] = test system: Streptococcus pneumoniae; experiment: Antimicrobial activity against Streptococcus pneumoniae assessed as reduction in microbial growth by disk diffusion assay; format: functional
[32] = test system: Malme-3M; experiment: Growth inhibition of human Malme-3M cells; format: functional
[33] = test system: Neisseria gonorrhoeae; experiment: Antimicrobial activity against Neisseria gonorrhoeae assessed as reduction in microbial growth by disk diffusion assay; format: functional
[34] = test system: Neisseria gonorrhoeae; experiment: Antimicrobial activity against Penicillin resistant Neisseria gonorrhoeae assessed as reduction in microbial growth by disk diffusion assay; format: functional
[35] = test system: Streptococcus pneumoniae; experiment: Antimicrobial activity against Penicillin resistant Streptococcus pneumoniae assessed as reduction in microbial growth by disk diffusion assay; format: functional

With `COC1=C(C)C(=O)C2=C(C1=O)[C@@H]1[C@@H]3CC4=C(C(=O)C(OC)=C(C)C4=O)[C@H](COC(C)=O)N3[C@@H](O)[C@H](C2)N1C` the IC50 [1] was 0.76 nM, the IC50 [2] was 0.49 nM and the IC50 [3] was 0.0125 µg/mL (≈ 0.0237 µM). It also gave an IC50 [4] of 0.0125 µg/mL (≈ 0.0237 µM), an inhibition at 50 ng/ml [5] of 100% and an IC50 [6] of 0.0125 µg/mL (≈ 0.0237 µM). The IC50 [7] was 0.57 nM and the IC50 [8] was 0.0125 µg/mL.

`C/C=C(/C)C(=O)OC[C@H]1C2=C(C[C@H]3[C@H]4C5=C(C(=O)C(C)=C(OC)C5=O)[C@H](O)[C@@H]([C@H](CC(C)=O)N13)N4C)C(=O)C(C)=C(O)C2=O` gave an IC50 [9] of over 100000 nM and an IC50 [8] of over 100000 nM.

`COC1=C(C)C(=O)C2=C(C1=O)[C@@H]1[C@@H]3CC4=C(C(=O)C(OC)=C(C)C4=O)[C@H](COC(C)=O)N3[C@@H](C#N)[C@H](C2)N1C` [CYANOJORUMYCIN] showed an IC50 [10] of under 0.38 nM and an IC50 [11] of 0.68 nM.

Work on `C/C=C(/C)C(=O)OC[C@H]1C2=C(C[C@H]3[C@H]4c5c(O)c(OC)c(C)c(O)c5[C@@H](O)[C@@H]([C@H](C#N)N13)N4C)C(=O)C(C)=C(OC)C2=O` yielded an IC50 [10] of 5.6 nM, an IC50 [12] of 5.7 nM and an IC50 [11] of 11 nM. It also gave an IC50 [13] of 6.7 nM.

`C/C=C(/C)C(=O)OC[C@H]1C2=C(C[C@H]3[C@H]4C5=C(C[C@@H](C(=O)N13)N4C)C(=O)C(C)=C(OC)C5=O)C(=O)C(C)=C(OC)C2=O` [(-)-RENIERAMYCIN G] showed an IC50 [14] of 3500 nM, an IC50 [15] of 3800 nM and a GI50 [16] of 1100 nM. For the same compound, the GI50 [17] was 1300 nM, the IC50 [18] was 3500 nM and the GI50 [19] was 1300 nM. The IC50 [20] was 3500 nM and the IC50 [21] was 3500 nM.

For `C/C=C(/C)C(=O)OC[C@H]1C2=C(C[C@H]3[C@H]4C5=C(C(=O)C(C)=C(OC)C5=O)[C@H](O)[C@@H](CN13)N4C)C(=O)C(C)=C(OC)C2=O`, the IC50 [22] was 0.2 µg/mL (≈ 0.353 µM).

For `C/C=C(/C)C(=O)OC[C@H]1C2=C(C[C@H]3[C@H]4C5=C(C(=O)C(C)=C(OC)C5=O)[C@H](OCC)[C@@H]([C@H](CC(C)=O)N13)N4C)C(=O)C(C)=C(O)C2=O`, the IC50 [9] was over 100000 nM and the IC50 [8] was over 100000 nM.

With `C/C=C(/C)C(=O)OC[C@H]1C2=C(C[C@H]3[C@H]4C5=C(C[C@@H]([C@H](C#N)N13)N4C)C(=O)C(C)=C(OC)C5=O)C(=O)C(C)=C(OC)C2=O` [RENIERAMYCIN M] the IC50 [1] was 11 nM, the IC50 [23] was 20 nM and the IC50 [24] was 3.1 nM. It also gave an IC50 [25] of 0.84 nM, a GI50 [19] of 1700 nM and an IC50 [26] of 16.4 nM. For the same compound, the IC50 [27] was 6 nM and the IC50 [28] was 6.3 nM.

In the case of `COC1=C(C)C(=O)C2=C(C1=O)[C@@H]1[C@@H]3CC4=C(C(=O)C(OC)=C(C)C4=O)[C@H](CO)N3[C@@H](CC(C)=O)[C@H](C2=O)N1C`, the IC50 [9] is reported as 2500 nM, the IC50 [29] is reported as 1000 nM and the IC50 [8] is reported as 6200 nM.

Compound `CC(C)C[C@H](NC(=O)[C@H](Cc1ccccc1)NC(=O)c1cnccn1)B(O)O` [BORTEZOMIB] has an IC50 [29] of 14000 nM.

For `C/C=C(/C)C(=O)OC[C@H]1C2=C(C=C3[C@H]4c5c(O)c(OC)c(C)c(O)c5C(=O)[C@@H](C(=O)N31)N4C)C(=O)C(C)=C(OC)C2=O` [CRIBROSTATIN 5], the MIC [30] was 12.5 µg, the MIC [31] was 6.25 µg and the GI50 [32] was 390 nM. It also gave an MIC [33] of 6.25 µg, an MIC [34] of 1.56 µg and an MIC [35] of 50 µg.
